In one assay the target is T1, human TLR7 (Homo sapiens, UniProt Q9NYK1).
T1 construct: host or cells: HEK-Blue 293 cells expressing human TLR7
T1 sequence (Q9NYK1 27-1049): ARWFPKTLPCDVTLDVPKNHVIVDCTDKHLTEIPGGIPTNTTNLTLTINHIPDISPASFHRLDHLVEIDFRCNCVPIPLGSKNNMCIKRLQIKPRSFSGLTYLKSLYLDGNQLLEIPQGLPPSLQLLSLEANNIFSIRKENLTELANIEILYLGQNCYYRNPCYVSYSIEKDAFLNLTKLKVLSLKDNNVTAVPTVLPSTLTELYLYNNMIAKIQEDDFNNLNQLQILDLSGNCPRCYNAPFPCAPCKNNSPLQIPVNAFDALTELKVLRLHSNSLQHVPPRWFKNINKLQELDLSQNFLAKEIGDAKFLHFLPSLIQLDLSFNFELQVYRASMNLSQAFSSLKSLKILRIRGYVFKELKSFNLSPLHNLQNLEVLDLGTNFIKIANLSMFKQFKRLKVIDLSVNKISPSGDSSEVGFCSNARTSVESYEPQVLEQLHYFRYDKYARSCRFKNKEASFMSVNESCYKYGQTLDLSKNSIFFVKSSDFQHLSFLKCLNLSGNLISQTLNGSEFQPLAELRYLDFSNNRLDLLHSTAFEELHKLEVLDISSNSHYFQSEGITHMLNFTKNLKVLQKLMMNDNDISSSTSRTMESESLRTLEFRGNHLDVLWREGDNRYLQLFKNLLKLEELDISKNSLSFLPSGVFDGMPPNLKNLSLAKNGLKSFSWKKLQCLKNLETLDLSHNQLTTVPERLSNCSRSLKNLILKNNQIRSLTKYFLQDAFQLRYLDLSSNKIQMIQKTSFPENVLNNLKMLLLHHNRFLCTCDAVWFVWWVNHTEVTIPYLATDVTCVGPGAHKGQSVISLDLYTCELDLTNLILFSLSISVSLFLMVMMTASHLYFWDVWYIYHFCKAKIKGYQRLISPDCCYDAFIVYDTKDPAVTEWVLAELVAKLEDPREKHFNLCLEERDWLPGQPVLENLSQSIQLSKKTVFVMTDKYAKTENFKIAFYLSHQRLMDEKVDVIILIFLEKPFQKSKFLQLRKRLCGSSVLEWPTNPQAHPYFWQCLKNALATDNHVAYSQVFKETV
The experiment in a line: Cell-based TLR 7/8 assay, HEK-Blue TLR7 cells (SEAP reporter). As to conditions: based on Compound concentration only; Compounds formulated as SNEs; read-out: huTLR7 EC50 (converted). On the procedure:
(§1) HEK-Blue™ TLR7 and TLR8 cells (InvivoGen) were designed to assess the stimulation of TLR7 and TLR8 by monitoring the activation of NF-κB and AP-1. Compound B-1-SNE samples were diluted 1:2 across an 8-point titration in diluent buffer histidine/PS-20 in a sterile V-bottom plate. 20 μL of samples were transferred to corresponding wells of two flat bottom assay plates. Media was aspirated from HEK-Blue™ human TLR 7 and TLR 8 cells (T-75 flasks) and gently rinsed with pre-warmed (37° C.) DPBS for a total volume of 5 mL/flask. The DPBS was gently removed from the cells and cells were gently manually dislodged and resuspended in 2 mL of DPBS. Cell assay suspensions were then prepared at approximately 2.2×10^5 cells per mL of HEK-Blue™ detection medium (InvivoGen). 180 μL of cell suspension in detection medium was added to each well of the two flat bottom assay plates containing the diluted Compound B-1-SNE samples for a final dilution of sample equaling 1:10 (180 μL of cell suspension in detection medium and 20 μL of sample). The cells were then incubated at 37° C. in 5% CO2 for 20 hrs. The reporter gene, NF-Kb, induces the production of secreted embryonic alkaline phosphatase (SEAP) when stimulated and can be monitored using the vendor supplied SEAP detection kit. SEAP colorimetric changes were read at an absorbance of 640 nm using a SpectroMax Stakmax plate reader. […] EC50 values were calculated based on total Compound B-1-SNE concentration using GraphPad Prism Software and analyzed using agonist vs. response variable slope (four parameters) least squares fit.
(§2) Further to the description in Example 10, a cell-based activation system was used to assess activity of the Compound-formulated nanoemulsion systems, prepared as described in examples, supra. HEK-Blue™ TLR7 and TLR8 cells (InvivoGen) were designed to assess the stimulation of TLR7 and TLR8 by monitoring the activation of NF-κB and AP-1. Compound-SNE samples were diluted 1:2 across an 8-point titration in diluent buffer histidine/PS-20 in a sterile V-bottom plate. 20 μL of samples were transferred to corresponding wells of two flat bottom assay plates. Media was aspirated from HEK-Blue™ human TLR 7 and TLR 8 cells (T-75 flasks) and gently rinsed with pre-warmed (37° C.) DPBS for a total volume of 5 mL/flask. The DPBS was gently removed from the cells and cells were gently manually dislodged and resuspended in 2 mL of DPBS. Cell assay suspensions were then prepared at approximately 2.2×10^5 cells per mL of HEK-Blue™ detection medium (InvivoGen). 180 μL of cell suspension in detection medium was added to each well of the two flat bottom assay plates containing the diluted Compound-SNE samples for a final dilution of sample equaling 1:10 (180 μL of cell suspension in detection medium and 20 μL of sample). The cells were then incubated at 37° C. in 5% CO2 for 20 hrs. The reporter gene, NF-Kb, induces the production of secreted embryonic alkaline phosphatase (SLAP) when stimulated and can be monitored using the vendor supplied SLAP detection kit. SLAP colorimetric changes were read at an absorbance of 640 nm using a SpectroMax Stakmax plate reader. EC50s were calculated based on Compound concentration only, not total Compound-SNE concentration (Table 6) using GraphPad Prism Software and analyzed using agonist vs. response variable slope (four parameters) least squares fit.

Another assay addresses T2, human TLR8 (Homo sapiens, UniProt Q9NR97).
T2 construct: host or cells: HEK-Blue 293 cells expressing human TLR8
T2 sequence (Q9NR97 27-1041): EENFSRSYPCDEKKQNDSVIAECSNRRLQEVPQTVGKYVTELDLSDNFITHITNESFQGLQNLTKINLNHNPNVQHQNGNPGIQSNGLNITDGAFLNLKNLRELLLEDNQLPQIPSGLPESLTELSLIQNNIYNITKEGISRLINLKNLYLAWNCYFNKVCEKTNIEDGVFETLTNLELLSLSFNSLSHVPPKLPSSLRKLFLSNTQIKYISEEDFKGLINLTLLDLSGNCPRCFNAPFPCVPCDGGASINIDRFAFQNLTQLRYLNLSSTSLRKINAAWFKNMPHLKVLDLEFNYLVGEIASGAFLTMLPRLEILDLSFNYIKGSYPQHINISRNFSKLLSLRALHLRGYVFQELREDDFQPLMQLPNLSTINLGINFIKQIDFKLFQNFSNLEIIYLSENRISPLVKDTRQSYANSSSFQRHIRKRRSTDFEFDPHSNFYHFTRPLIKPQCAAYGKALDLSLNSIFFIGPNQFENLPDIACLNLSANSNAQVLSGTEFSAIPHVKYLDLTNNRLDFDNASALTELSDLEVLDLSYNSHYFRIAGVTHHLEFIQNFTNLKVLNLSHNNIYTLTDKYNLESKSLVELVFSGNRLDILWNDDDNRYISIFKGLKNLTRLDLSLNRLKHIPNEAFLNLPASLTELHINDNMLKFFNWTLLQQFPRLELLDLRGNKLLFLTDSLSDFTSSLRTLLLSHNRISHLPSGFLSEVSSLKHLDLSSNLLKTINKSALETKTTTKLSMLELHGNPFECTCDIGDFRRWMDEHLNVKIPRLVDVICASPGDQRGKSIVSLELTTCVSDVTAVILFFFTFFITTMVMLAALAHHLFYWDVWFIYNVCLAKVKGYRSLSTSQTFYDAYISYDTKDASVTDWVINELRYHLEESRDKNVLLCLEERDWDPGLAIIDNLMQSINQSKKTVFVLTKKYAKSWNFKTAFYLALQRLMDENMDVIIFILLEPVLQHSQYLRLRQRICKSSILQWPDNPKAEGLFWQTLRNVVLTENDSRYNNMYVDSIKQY
Nature of the assay: Cell-based TLR 7/8 assay, HEK-Blue TLR8 cells (SEAP reporter). As to conditions: based on Compound concentration only; Compounds formulated as SNEs; read-out: huTLR8 EC50 (converted). How it is done:
as §1, §2

In general, EC50 refers to the concentration needed to bring the measured effect to its halfway point. Turning to `CCCCCCCCCCCCCCCCCC(=O)NCCCNC(=O)C1CCN(c2ccc(Cn3cc4nc(N)nc(NCCCC)c4n3)c(OC)c2)CC1` [Compound B-8, 1-(4-((5-amino-7-(butylamino)-2H-pyrazolo[4,3-d]pyrimidin-2-yl)methyl)-3-methoxyphenyl)-N-(3-stearamidopropyl)piperidine-4-carboxamide], the EC50 on human TLR7 was 64.7 µM; at human TLR8 it was 54 µM.

In the case of `CCCCCCCCCCCCCCCCNC(=O)[C@H]1C[C@@H](CC(=O)N2CCN(c3ccc(Cn4cc5nc(N)nc(NCCCC)c5n4)c(OC)c3)CC2)C1` [Compound B-10, (1s,3s)-3-(2-(4-(4-((5-amino-7-(butylamino)-2H-pyrazolo[4,3-d]pyrimidin-2-yl)methyl)-3-methoxyphenyl)piperazin-1-yl)-2-oxoethyl)-N-hexadecylcyclobutane-1-carboxamide], the figures for the half-maximal effective concentration (EC50) on human TLR7 and at human TLR8 were 117 µM and 73.6 µM, respectively.

In the case of `CCCCCCCCCCCCCCCCCC(=O)NCCC(=O)N1CCN(c2ccc(Cn3cc4nc(N)nc(NCCCC)c4n3)c(OC)c2)CC1` [Compound B-11, N-(3-(4-(4-((5-amino-7-(butylamino)-2H-pyrazolo[4,3-d]pyrimidin-2-yl)methyl)-3-methoxyphenyl)piperazin-1-yl)-3-oxopropyl)stearamide], the results for the EC50 on human TLR7 and at human TLR8 were 3.07 µM and 0.401 µM, respectively.

On to `CCCCCCCCCCCCCCCCCC(=O)NCCCCCCC(=O)N1CCN(c2ccc(Cn3cc4nc(N)nc(NCCCC)c4n3)c(OC)c2)CC1` [Compound B-12, N-(7-(4-(4-((5-amino-7-(butylamino)-2H-pyrazolo[4,3-d]pyrimidin-2-yl)methyl)-3-methoxyphenyl)piperazin-1-yl)-7-oxoheptyl)stearamide], for which the EC50 was 23.4 µM on human TLR7 and 25.5 µM at human TLR8.

For `CCCCCCCCCCCCCCCCCC(=O)NC1CC(CC(=O)N2CCN(c3ccc(Cn4cc5nc(N)nc(NCCCC)c5n4)c(OC)c3)CC2)C1` (centres unmarked) [Compound B-13, N-(3-(2-(4-(4-((5-amino-7-(butylamino)-2H-pyrazolo[4,3-d]pyrimidin-2-yl)methyl)-3-methoxyphenyl)piperazin-1-yl)-2-oxoethyl)cyclobutyl)stearamide], the values for the EC50 on human TLR7 and on human TLR8 were 85.9 µM and 3.02 µM, respectively.

As to `CCCCCCCCCCCCCCCCCC(=O)NCCCC(C)(C)C(=O)N1CCN(c2ccc(Cn3cc4nc(N)nc(NCCCC)c4n3)c(OC)c2)CC1` [Compound B-14, N-(5-(4-(4-((5-amino-7-(butylamino)-2H-pyrazolo[4,3-d]pyrimidin-2-yl)methyl)-3-methoxyphenyl)piperazin-1-yl)-4,4-dimethyl-5-oxopentyl)stearamide], the EC50 at human TLR7 is 135 µM; on human TLR8, 11.9 µM.

`CCCCCCCCCCCCCCCCCC(=O)NCCCCC(=O)N1CCN(c2ccc(Cn3nc4c(NCCCC)nc(N)nc4c3C)c(OC)c2)CC1` [Compound B-18, N-(5-(4-(4-((5-amino-7-(butylamino)-3-methyl-2H-pyrazolo[4,3-d]pyrimidin-2-yl)methyl)-3-methoxyphenyl)piperazin-1-yl)-5-oxopentyl)stearamide]: the EC50 at human TLR7 was 0.316 µM; on human TLR8, 0.215 µM.

For the compound `CCCCC/C=C\C/C=C\CCCCCCCC(=O)NCCCCN(C)Cc1cc(OC)c(Cn2cc3nc(N)nc(NCCCC)c3n2)c(OC)c1` [Compound C-1, (9Z,12Z)—N-(4-((4-((5-amino-7-(butylamino)-2H-pyrazolo[4,3-d]pyrimidin-2-yl)methyl)-3,5-dimethoxybenzyl)(methyl)amino)butyl)octadeca-9,12-dienamide], the figures for the concentration for a half-maximal effect (EC50) at human TLR7 and on human TLR8 were 0.259 µM and 0.0955 µM, respectively.

Take `CCCCCCCCCCCCCC(=O)NCCCCN(C)Cc1cc(OC)c(Cn2cc3nc(N)nc(NCCCC)c3n2)c(OC)c1` [Compound C-2, N-(4-((4-((5-amino-7-(butylamino)-2H-pyrazolo[4,3-d]pyrimidin-2-yl)methyl)-3,5-dimethoxybenzyl)(methyl)amino)butyl)tetradecanamide]: the figures for the EC50 at human TLR7 and at human TLR8 were 0.338 µM and 0.176 µM, respectively.

As for `CCCCCCCC/C=C\CCCCCCCC(=O)NCCCCN(C)Cc1cc(OC)c(Cn2cc3nc(N)nc(NCCCC)c3n2)c(OC)c1` [Compound C-3, N-(4-((4-((5-amino-7-(butylamino)-2H-pyrazolo[4,3-d]pyrimidin-2-yl)methyl)-3,5-dimethoxybenzyl)(methyl)amino)butyl)oleamide], the figures for the concentration for a half-maximal effect (EC50) on human TLR7 and on human TLR8 were 0.503 µM and 0.163 µM, respectively.

The record behind these values is patent publication US20240390471A1, “COMPOUNDS AND ADJUVANT FORMULATIONS USEFUL IN PNEUMOCOCCAL VACCINES” (Merck Sharp & Dohme LLC, priority 2023, published 2024).
